Laboratory results taken from patent US9499590B2, “Antibodies against and methods for producing vaccines for respiratory syncytial virus” (MEDIMMUNE, LLC, priority 2009, dated 2016).
Several values for one entry are separate records, joined by “and”; a condition that tells them apart may be missing. Equal values may be shown once.

B1: Numax ™: enhanced potency RSV-specific monoclonal antibody derived by in vitro affinity maturation of palivizumab (antibody, listed as Chimaera sp., V domains shown)
VH: QVTLRESGPALVKPTQTLTLTCTFSGFSLSTAGMSVGWIRQPPGKALEWLADIWWDDKKHYNPSLKDRLTISKDTSKNQVVLKVTNMDPADTATYYCARDMIFNFYFDVWGQGTTVTVSS
VL: DIQMTQSPSTLSASVGDRVTITCSASSRVGYMHWYQQKPGKAPKLLIYDTFFLDSGVPSRFSGSGSGTEFTLTISSLQPDDFATYYCFQGSGYPFTFGGGTKVEIK
modifications: (1)..(120) Humanized VH domain antibody sequence; (1)..(106) Humanized VL domain antibody sequence

What was measured:
[1] = tested on: RSV monoclonal antibody resistant mutants (MARMs); assay: Microneutralization assay of RSV monoclonal antibody resistant mutants (MARMs); type: cell-based, respiratory syncytial virus
Protocol: Neutralization assays have also been described (see, for example, Beller et al., 1989, J Virol 63: 2941-2950, which is incorporated herein by reference in its entirety). Briefly RSV is incubated in the presence of serial dilutions of the agent(s) to be tested (e.g., F peptide) for an appropriate period of time. The mixtures of virus-agent(s) are then transferred to cell monolayers and incubated for an appropriate period of time. Cells are subsequently examined microscopically for cytopathology. Microscopic observations can be confirmed by staining with a glutaraldehyde-crystal violet solution. Neutralization can be expressed as the reciprocal of the highest agent dilution which inhibited more then 95% of the viral cytopathic effect present in the control sample (RSV and cells alone)
(§1) Hep-2 cells were infected in 24 well plates with RSV (in some cases, the B9320 RSV strain) in the presence of an anti-RSV monoclonal antibody, such as, for instance, Synagis® (palivizumab) and/or Numax™ (motavizumab) or MEDI-524. The virus was passaged two to three more times in the continued presence of the monoclonal antibody. […] The resulting plaques were purified two times in the presence of the monoclonal antibody. The virus was expanded to produce virus stock in either the presence or absence of the monoclonal antibody. Analysis of susceptibility of the viral mutants to neutralization by Synagis® (palivizumab) and Numax™ (motavizumab) was performed by a microneutralization assay and/or IFA. Finally, the sequence of the mutant F protein was determined by standard methods. […] Antibody contact with residues 262, 268 and 272 appear important.

RSV B9320 strain mutants = assay: Microneutralization assay of RSV B9320 strain F protein mutants; type: cell-based, respiratory syncytial virus
From the text: as §1

Numax™ = assay: Biacore kinetic analysis of F peptides on captured Numax™; type: binding; settings: F peptide 100 nM over captured Numax, HBS-EP
Protocol: All studies were performed using Sensor Chip CM5 (Biacore AB, Uppsala, Sweden) which contains a carboxymethyl (CM) dextran matrix and a Biacore®3000 surface plasmon resonance (SPR) biosensor (Biacore AB, Uppsala, Sweden).
Numax™ was captured via a high-affinity interaction between the Fc portion of Numax™ and a goat anti-human IgG(Fc) (KPL, Inc., Gaithersburg, Md.). Goat anti-human IgG(Fc) was covalently attached to the CM dextran matrix using amine coupling chemistry. Two anti-human IgG(Fc)-specific surfaces were created. Numax™ was diluted to 10.9 μg/mL with HBS-EP and flowed for 1 min. across one of the anti-human IgG (Fc) surfaces at a flow rate of 5 μL/min. The other anti-human IgG(Fc) surface was used as a reference surface. F peptide was prepared by dilution in HBS-EP (0.01 M Hepes pH 7.4, 0.15 M NaCl, 3 mM EDTA, 0.005% surfactant P20) to a final concentration of 100 nM. F peptide was injected for 1 min. in a serial-flow manner across the reference surface and the Numax™-specific surface. Dissociation of bound F peptide was monitored for 2 min in the presence of HBS-EP. After this dissociation period, Numax™ and F peptide were removed with a 30-sec injection of 10 mM glycine pH 1.7 (Biacore AB, Uppsala, Sweden). Because of the removal of Numax™, it was necessary to create a new Numax™-specific surface prior to the injection of each F peptide.

MEDI-524 Fab = MEDI-524 Fab (Homo sapiens, UniProt P01834+P01857); assay: Isothermal titration calorimetry (ITC) of F peptides with MEDI-524 Fab; type: binding; settings: 18° C., 25 mM His, pH 6.07
From the text: Isothermal Titration calorimetry assays (ITC) have been described (see, for example, Heerklotz H et al., Biophysical Journal, May 1999). Molecular interactions are defined by stoichiometry and a few thermodynamic parameters. All binding reactions are associated with the absorption or generation of heat. Therefore calorimetry is emerging as a premier tool for the characterisation of interactions of biological macromolecules. ITC is the only method that measures equilibrium constants, enthalpy and entropy in one single experiment. If the experiment is performed at different temperatures the important parameter, the heat capacity change, can be determined. ITC has become a standard method for investigating the binding of ligands to receptor molecules. Accordingly, ligands are mixed with receptors, and the subsequent heats of incorporation (or binding) are measured.
To obtain binding constants for MEDI-524 Mab and MEDI-524 Fab fragments with F peptides constructed from F protein sequences, ITC was performed.
For this set of experiments, […] (1.16 μM-148.4 KDa) of MEDI-524 Mab and 0.088 mg/mL (1.88 μM-46.3 KDa) of MEDI-524 Fab, both in 25 mM His, pH 6.07 were used. On the other hand, 250 μl of lmg/mL of the different peptides dissolved in H2O, were provided by ABC. The peptides were then diluted into the appropriate volume of buffer to give a final concentration of 50 μM. The ITC experiments were run at 18° C. with the macromolecule (Mab or Fab) in the cell, by doing ˜26 injections of 10 μL of peptides, spaced 360 sec with constant stirring. The data fitting was accomplished by subtracting the average value of the few last injections as the buffer and unspecific heat of dilution contributions. […] A note apart is the fact that the observed binding capacity (N) increases with the length of the peptide, indicating possibly an extra conformational factor in the binding event. The entropic contribution: For the peptides SEQ ID NOs.24 and 26, the entropic factor seems to be similar; the extra amino acids at the end of the N-terminal seem not to affect greatly the binding parameters. On the other hand, the elongation at the C-terminal seems to decrease slightly the binding enthalpy, the binding constant, as well as the entropic factor. The binding capacity seems to be increased in the cases where the 30-mer peptides were used (SEQ ID Nos. 25 and 26), when compare to the SEQ ID NO.24 peptide, possibly due to the longer extent of the whole peptides. The binding constant seems to be smaller (weaker) for both 30-mer peptides respect to the 26-mer.

RSV F protein = assay: Biacore kinetic analysis, Numax reference standard; type: binding, respiratory syncytial virus
From the text: BIAcore analysis can measure the kinetic interactions of anti-RSV antibodies with RSV F peptides by surface plasmon resonance using a BIAcore 1000, 2000, or 3000 instrument (Biacore, Uppsala, Sweden). Purified recombinant, C-terminally truncated F protein was covalently coupled to a (1-ethyl-3-[3-dimethylaminopropyl]carbodiimide hydrochloride)/N-hydroxysuccinimide-activated CM5 sensor chip at a low protein density (see Johnsson et al. (1991) Anal. Biochem. 198, 268-277). The unreacted active ester groups were blocked with 1 M ethanolamine. For use as a reference, when the BIAcore 2000 or 3000 instrument was used, a blank surface, containing no antigen, was prepared under identical immobilization conditions. To minimize binding variations caused by different lots of F proteins, most of the antibodies were measured against the same lot of F protein. In several cases when different lots of F proteins were used, their binding to an anti-RSV antibody was used as a reference to make sure that these lots had similar binding characteristics to the lot that is used mainly. A serial 2-fold dilution series of purified antibodies, ranging from 0.2 to 100 nm in HBS/Tween 20 buffer (BIAcore), was injected over the F-protein and reference cell surfaces, which were connected in series. In each measurement, the residual antibody was removed from the sensor chip by a brief pulse of 100 mM HCl. The binding curves were globally fitted to a 1:1 Langmuir binding model using the BIAevaluation program. This algorithm calculates both kon and koff. The apparent equilibrium dissociation constant, Kd, was deduced as the ratio of the two rate constants, koff/kon.

[2] = K272E, or double mutation N262Y + K272Q
[3] = MARM 45, K272Q, selection Numax
[4] = MARM 49-B12, K272N, selection Numax
[5] = MARM 63-B6, N268L + K272I, selection Numax
[6] = MARM 63-H2, K272I, selection Numax
[7] = MARM 65-B10, N262Y + K272Q, selection Numax
[8] = MARM 69-C8, K272E, selection Numax
[9] = MARM #10, K272E + N276Y, selection A4b4
[10] = MARM #13, N262K + K272Q, selection Synagis then A4b4
[11] = MARM B1, K272N, selection Synagis
[12] = MARM B2, K272M, selection Synagis
[13] = MARM B7, K272T, selection Synagis
[14] = MARM B9, K272Q, selection Synagis
[15] = MARM NuMARM3, K272E, selection Numax
[16] = all other mutations indicated at position 272
[17] = K272N, K272Q or K272I, or double N268L + K272I

Sequence of MEDI-524 Fab (P01857 with tags, fused parts or gaps limits assumed, other chains not shown): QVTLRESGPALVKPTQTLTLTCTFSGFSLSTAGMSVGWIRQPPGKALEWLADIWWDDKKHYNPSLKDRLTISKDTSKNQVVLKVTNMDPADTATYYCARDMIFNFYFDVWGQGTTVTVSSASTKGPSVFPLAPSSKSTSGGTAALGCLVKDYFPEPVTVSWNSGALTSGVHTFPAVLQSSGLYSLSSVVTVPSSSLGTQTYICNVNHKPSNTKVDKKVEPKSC
Sequence of Numax™ (as listed by the source, one chain of several): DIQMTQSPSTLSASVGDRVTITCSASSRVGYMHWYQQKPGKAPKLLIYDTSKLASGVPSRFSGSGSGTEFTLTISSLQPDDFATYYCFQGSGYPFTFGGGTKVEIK

| Molecule | Neutralization of RSV mutant [1, 2] | Neutraliz by antibody? [1, 3] | Neutraliz by antibody? [1, 4] | Neutraliz by antibody? [1, 5] | Neutraliz by antibody? [1, 6] | Neutraliz by antibody? [1, 7] | Neutraliz by antibody? [1, 8] | Neutraliz by antibody? ([1]; MARM #6, K272E, selection A4b4) | Neutraliz by antibody? [1, 9] | Neutraliz by antibody? [1, 10] | Neutraliz by antibody? [1, 11] | Neutraliz by antibody? [1, 12] | Neutraliz by antibody? [1, 13] | Neutraliz by antibody? [1, 14] | Kd (Numax™) | ka (Numax™) | kd (Numax™) | Ka (association constant) (MEDI-524 Fab) | ΔHbinding (MEDI-524 Fab) | ΔSbinding (MEDI-524 Fab) | also measured |
| --- | --- | --- | --- | --- | --- | --- | --- | --- | --- | --- | --- | --- | --- | --- | --- | --- | --- | --- | --- | --- | --- |
| Synagis ®: humanized RSV monoclonal antibody directed against the F glycoprotein of RSV [reference compound] | longer neutralized RSV | No | No | No | No | No | No | No | No | No | No | No | No | No | – | – | – | – | – | – | Neutraliz by antibody? [1, 15]: No; Neutralization of RSV mutant [1, 16]: eliminate the ability; Neutralization of RSV mutant (RSV B9320 strain mutants; [17]): lost its ability to neutralize RSV; Neutralization of RSV mutant (RSV B9320 strain mutants; double mutation K272Q + N262K): lost their ability to neutralize |
| NSELLSLINDMPITNDQKKLMSNN(X-orn)C [SEQ ID NO: 24] | – | – | – | – | – | – | – | – | – | – | – | – | – | – | 2.29 nM | 1.06E+05 | 2.42E−04 | 1.3e+07 M⁻¹ | -12.8 kcal/mol | −11.4 | – |
| NSELLSLIHDMPITNDQKKLMSNNVQIVRQ [SEQ ID NO: 25] | – | – | – | – | – | – | – | – | – | – | – | – | – | – | 7.23 nM and 5.44 nM | 2.50E+05 and 3.62E+05 | 1.81E−03 and 1.97E−03 | 6.5e+06 M⁻¹ | -10.4 kcal/mol | −4.7 | – |
| STYMLTNSELLSLIHDMPITNDQKKLMSNN [SEQ ID NO: 26] | – | – | – | – | – | – | – | – | – | – | – | – | – | – | 22.7 nM | 2.43E+05 | 5.52E−03 | 7.1e+06 M⁻¹ | -11.4 kcal/mol | −8.1 | – |
| NSELLSLINDMPITNDQKKLMSNNC [SEQ ID NO: 27] | – | – | – | – | – | – | – | – | – | – | – | – | – | – | 20.4 nM | 2.70E+05 | 5.50E−03 | – | – | – | – |
| B1 | longer neutralized RSV | Yes at higher | Yes at higher | Yes at higher | Yes at higher | No | No | No | No | No | Yes | Yes | Yes | Yes | – | – | – | – | – | – | Neutraliz by antibody? [1, 15]: No; Neutralization of RSV mutant [1, 16]: retain its ability to neutralize; Neutralization of RSV mutant (RSV B9320 strain mutants; [17]): retain its ability to neutralize RSV at higher concentration; Neutralization of RSV mutant (RSV B9320 strain mutants; double mutation K272Q + N262K): lost their ability to neutralize; Neutralization of RSV mutant (RSV B9320 strain mutants; single mutant K272Q): did not knock out; Kd (RSV F protein): 0.004 nM; ka (RSV F protein): 4.70E+05; kd (RSV F protein): 1.88E−06 |
